Patent US12564631B2, “Phytosphingosine derivatives as adjuvants in immune stimulation” (Helmholtz-Zentrum für Infektionsforschung GmbH, priority 2020, dated 2026)
“Also recorded” adds a separate entry of the source.

Columns and labels:
[1] = tested on: Th1-type / Th2-type response; settings: literature cited in background; cited from earlier work
[2] = tested on: CD4+ T cells; assay: CFSE proliferation assay of CD4+ T cells after interaction with Ova/adjuvant-matured bone marrow derived DCs (APC); type: cell-based, mice; settings: for stimulating effect of CD4+ T cells versus controls with only antigen Ova: CFSE loss up to 7 days, DCs activated with Ova + 10 μg compound, FIG. 4A/4B; for capacity to induce antigen specific CD4+ T cell proliferation: DCs restimulated with Ovalbumin + 10 μg compound for 24 h, interaction with APC for 5 days
Text: FIG. 3B: Cell proliferation tracked by CFSE dilution of CD4+ T cells after interaction with matured Antigen Presenting Cells (APC). With every cell division, the CFSE signal strength is approximately halved. The shown cell numbers indicate the ratio of proliferated live CD4+ T cells.
(§1) FIG. 4: Effect after treatment with IPB 0964-1917—Cell proliferation tracked by CFSE loss of T cells after interaction with matured Antigen Presenting Cells (APC). With every cell division, the CFSE signal strength is reduced. The shown cell numbers indicate the ratio of proliferating T and B cells (7 steps are shown). (A) Numbers of CD4+ T cells are shown at different proliferation steps up to 7 days measuring the loss of CFSE. Naïve cells were treated with one of IPB1901-1912 together with DCs activated with Ova prior to the CFSE assay. (B) Numbers of CD4+ T cells are shown at different proliferation steps up to 7 days measuring the loss of CFSE. Naïve cells were treated with one of IPB2033-2044 together with DCs activated with Ova prior to the CFSE assay. (C) Numbers of CD8+ T cells are shown at different proliferation steps up to 7 days measuring the loss of CFSE. Naïve cells were treated with one of IPB1901-1912 together with DCs activated with Ova prior to the CFSE assay. (D) Numbers of CD8+ T cells are shown at different proliferation steps up to 7 days measuring the loss of CFSE. Naïve cells were treated with one of IPB2033-2044 together with DCs activated with Ova prior to the CFSE assay.
(§2) In order to assess the properties of the inventive compounds in antigen-specific T and B cell stimulation, the compounds were administered to cultured bone marrow cells in a CFSE assay.
(§3) Briefly, femurs and Tibiae of female 4-12 weeks old C57Bl6 (or BALB/c for TCR HA) were removed and purified from the surrounding muscle tissue (Kleenex tissues). Intact Bones were left in 70% ethanol for 2-5 min for disinfection. Both ends were cut with scissors and the bone marrow were flushed with PBS using a syringe with a 0.45 mm diameter needle, clusters were disintegrated by vigorous pipetting.
(§4) In order to obtain activated antigen presenting dendritic cells (DCs), bone marrow cells were cultured with GM-CSF. On Day 0, cells were seeded in a concentration of 2×10^6 cells per 100 mm dish (bacteriological petri dishes) in 10 ml RPMI-10 (100 U Pen/100 μg Strept/2 mM Glutamin/50 μm ß-Mercaptoethanol/10% FCS heat-inactivated and filtered 0.22 μm Filter) containing 200 Units GM-CSF. On Day 3 another 10 ml RPMI-10 containing 200 U GM-CSF were added to the plates. On Day 6 half of the culture supernatants (10 ml) were collected, centrifuged and the cell pellet resuspended in 10 ml fresh RPMI-10/200 U GM-CSF and given back into the original plates.
(§5) Subsequently, the DCs were incubated with Ovalbumin (as antigen) alone or co-administered with known adjuvants, such as α-GalCerMPEG, aßGalCerMPEG or TLR2/6 ligand (BPPcysMPEG), or the novel phytosphingosine derivatives of the present invention. The activation of DCs was controlled by FACS analysis of different CD markers, such as CD40, CD54, CD80, CD86, CD83, MHCI and MHCII.
(§6) The effect of the compounds of the present invention was then ascertained via co-incubation of naïve T or B cells, obtained from mice (OTI or OTII mice) with previous exposure to the Ova antigen, with DCs that had been treated with the compounds of the invention.
(§7) Naïve T cells were derived from LN/spleen from OTI or OTII mice. The MagniSort™ Mouse CD4 naïve or CD8 naïve T cell Enrichment Kit is designed for the magnetic separation of CD4 or CD8 naïve T cells by negative selection from mouse spleens or lymph nodes utilizing a biotinylated antibody cocktail and streptavidin-coated magnetic beads. Undesired cells are bound by antibody (Anti-Mouse CD8 or CD4/CD11b CD19/CD24/CD44/CD45R(B220)/CD49b(Integrin α 2)/Ly-6G (Gr-1)/γδ TCR/TER-119) and then magnetic beads that, when placed in a magnetic field, leave CD4 or CD8 naïve T cells untouched and free in solution. […]

[3] = tested on: CD19+ B cells; assay: CFSE proliferation assay of CD19+ B cells after interaction with Ova/adjuvant-matured bone marrow derived DCs (APC); type: cell-based, mice; settings: FIG. 3A; for toxicity against B cells: effect not comparable to adjuvant controls; for capacity to induce antigen specific CD19+ B cell proliferation: DCs restimulated with Ovalbumin + 10 μg compound for 24 h, interaction with APC for 5 days
Experimental: FIG. 3A: Cell proliferation tracked by CFSE dilution of B cells after interaction with matured Antigen Presenting Cells (APC). With every cell division, the CFSE signal strength is approximately halved. The observed cell numbers indicate the ratio of proliferating viable CD19+ B cells.
as §2, §3, §4, §5, §6
CFSE staining of the CD4+ or CD8+ naïve T cells is then carried out according to standard procedures. Subsequently, 2-5×10^4 DCs (as mature antigen presenting cells APCs) are incubated with 4×10^5 CFSE+ T cells (OTI or OTII) per well (ratio DC/T cells is […]). A CFSE proliferation assay is then conducted, using on Day +5 or on Day +7 a FACS analysis (CFSE/LD/CD4/CD8/CD19/Thy1.1), providing a cell count for the desired cell type based on CFSE. With every cell division, the CFSE signal strength is approximately halved. The cells marked with CFSE can therefore be used to determine the proliferation of CD19+ B cells, CD4+ or CD8+ T cells in response to treatment with activated DCs, that were treated with or without the compounds of the invention.
As is shown in FIG. 3A, cell proliferation of B cells is tracked by CFSE dilution after interaction with APCs. With every cell division, the CFSE signal strength is approximately halved. Therefore, the compounds of the invention show an effect on inducing antigen specific CD19+ cell proliferation.
On day −1, mature DCs were restimulated with Ovalbumin (antigen) co-administered with 10 μg of the different novel phytosphingosine derivatives (0964-1917) or with positive controls (α-GalCerMPEG, aßGalCerMPEG, CDA or BPPcysPEGdef) for 24 h.

[4] = tested on: splenocytes; assay: Unspecific proliferation assay of splenocytes ([3H]thymidine incorporation); type: cell-based, mice; settings: for induction of unspecific proliferation in splenocytes: summary statement; for Stimulation index (SI): splenocytes restimulated 96 h with 1, 10 and 20 μg/ml compound, ratio of [3H]-thymidine uptake of stimulated versus non-stimulated samples, FIG. 2E/2F
Experimental: FIG. 2: Analysis of unspecific proliferative responses of murine cells stimulated without or with enhanced concentrations of the Phytosphingosine-compounds. Splenocytes from mice were re-stimulated for 96 h with different concentrations of adjuvant (1, 10 and 20 μg/ml). The results are presented by are expressed (A-C) as counts per minute (cpm) and (D-F) stimulation index (SI) being the ratio of [^3H]-thymidine uptake of stimulated versus non-stimulated samples. (A) and (D) show data for α-GalCer controls, (B) and (E) show data for IPB1901-1910, and (C) and (F) show data for IPB1911-1917.
In order to assess the properties of the inventive compounds in antigen-unspecific immune response stimulation the compounds were administered to splenocytes in an established proliferation assay.
For the proliferation assay, splenocytes (5×10^6 cells/ml) are seeded at 100 μl per well in a U-bottomed 96-well microtiter plate (Sarstedt Inc., Newton, N.C.) and cultured in quadruplicates 4 days in the presence of enhanced concentrations of adjuvant (1, 10 and 20 μg/ml)), 5 μg/ml of Concanavalin A (max); or medium alone. Eighteen hours before harvesting, 1 μCi of [3H]thymidine (Amersham International, Freiburg, Germany) is added to each well. Cells are harvested on paper filters (Filtermat A; Wallac, Freiburg, Germany) using a cell harvester (Inotech, Wohlen, Switzerland) and the incorporation of [3H] thymidine into the DNA of proliferating cells is determined using a scintillation counter (Wallac 1450, Micro-Trilux).

[5] = tested on: CD8+ T cells; assay: CFSE proliferation assay of CD8+ T cells after interaction with Ova/adjuvant-matured bone marrow derived DCs (APC); type: cell-based, mice; settings: for stimulating effect of CD8+ T cells versus controls with only antigen Ova: CFSE loss up to 7 days, DCs activated with Ova + 10 μg compound, FIG. 4C/4D; for effect to induce antigen specific CD8+ T cell proliferation: DCs restimulated with Ovalbumin + 10 μg compound for 24 h, interaction with APC for 5 days, FIG. 3C
Text: FIG. 3C: Cell proliferation tracked by CFSE dilution of CD8+ T cells after interaction with matured Antigen Presenting Cells (APC). With every cell division, the CFSE signal strength is approximately halved. The shown cell numbers indicate the ratio of proliferated live CD8+ T cells
as §1, §2, §3, §4, §5, §6, §7

Compound | stimulating effect of CD4+ T cells versus controls with only antigen Ova [2] | toxicity against B cells [3] | induction of unspecific proliferation in splenocytes [4] | stimulating effect of CD8+ T cells versus controls with only antigen Ova [5] | capacity to induce antigen specific CD4+ T cell proliferation ([2]; FIG. 3B) | effect to induce antigen specific CD8+ T cell proliferation [5] | Stimulation index (SI) [4] | further results
CCCCCCCCCCCCCC[C@@H](O)[C@@H](O)[C@H](CO[C@H]1O[C@H](CO)[C@H](O)[C@H](O)[C@H]1O)NC(=O)CCCCCCCCCCc1ccc(F)cc1 [7DW8-5] |  |  |  |  |  |  |  | type of response elicited (Th1 / Th2) [1]: elicit a Th1 response
CCCCCCCCCCCCCC[C@@H](O)[C@@H](O)[C@H](CO[C@H]1OC(CO)[C@H](O)C(O)C1O)N(CC(=O)NCc1ccccc1)C(=O)CCCCCCC (stereo partly drawn) [IPB 1902] | stimulating effect of CD4+ T cells beyond controls | may show some toxicity against B cells | beneficial induction of unspecific proliferation | stimulating effect of CD8+ T cells beyond controls |  |  |  | toxicity against CD4+ T cells ([2]; FIG. 3B, no improved effect over adjuvant controls): may show some toxicity against CD4+ T cells
CCCCCCCCCCCCCCNC(=O)CN(C(=O)[C@@H](Cc1ccccc1)NC(C)=O)[C@@H](CO[C@H]1OC(CO)[C@H](O)C(O)C1O)[C@H](O)[C@H](O)CCCCCCCCCCCCCC (stereo partly drawn) [IPB 1904] |  |  | beneficial induction of unspecific proliferation |  |  |  |  | capacity to induce antigen specific CD19+ B cell proliferation [3]: particularly high capacity; also recorded: beneficial capacity
CCCCCCCCCCCCCCCCCCCCCCCC(=O)N(CC(=O)NCC(OC)OC)[C@@H](CO[C@H]1OC(CO)[C@H](O)C(O)C1O)[C@H](O)[C@H](O)CCCCCCCCCCCCCC (stereo partly drawn) [IPB 1911] |  |  | beneficial induction of unspecific proliferation |  | high capacity; also recorded: beneficial capacity | strong effect; also recorded: beneficial effect |  | 
CCCCCCCCCCCCCC[C@@H](O)[C@@H](O)[C@H](CO[C@H]1OC(CO)[C@H](O)C(O)C1O)N(CC(=O)NC1CCCCC1)C(=O)CCCCCCCCCCC (stereo partly drawn) [IPB 1903] | stimulating effect of CD4+ T cells beyond controls | may show some toxicity against B cells | beneficial induction of unspecific proliferation | stimulating effect of CD8+ T cells beyond controls | high capacity; also recorded: beneficial capacity |  | > 10 | 
CCCCCCCCCCCCCCCCCC(=O)N(CC(=O)NCCC(=O)OC(C)(C)C)[C@@H](CO[C@H]1OC(CO)[C@H](O)C(O)C1O)[C@H](O)[C@H](O)CCCCCCCCCCCCCC (stereo partly drawn) [IPB 1909] |  |  |  |  | high capacity; also recorded: beneficial capacity | strong effect; also recorded: beneficial effect |  | capacity to induce antigen specific CD19+ B cell proliferation [3]: particularly high capacity; also recorded: beneficial capacity
CCCCCCCCCCCCCC[C@@H](O)[C@@H](O)[C@H](CO[C@H]1OC(CO)[C@H](O)C(O)C1O)N(CC(=O)NCCCCCCCCCCCC)C(=O)CCCCCCCCCCCCC (stereo partly drawn) [IPB 1901] | stimulating effect of CD4+ T cells beyond controls | may show some toxicity against B cells | beneficial induction of unspecific proliferation | stimulating effect of CD8+ T cells beyond controls |  |  | 4 | 
CCCCCCCCCCCCCCCCCCCCCCCC(=O)N[C@@H](CO[C@H]1O[C@H](CO)[C@H](O)[C@H](O)[C@H]1O)[C@H](O)[C@H](O)CCCCC [OCH] |  |  |  |  |  |  |  | type of response elicited (Th1 / Th2) [1]: elicit a Th2-type response
CCCCCCCCCCCCCCCCCCCCCCCC(=O)N(CC(=O)NCCC(=O)O)[C@@H](CO[C@H]1OC(CO)[C@H](O)C(O)C1O)[C@H](O)[C@H](O)CCCCCCCCCCCCCC (stereo partly drawn) [IPB 1910] |  |  | beneficial induction of unspecific proliferation |  | high capacity; also recorded: beneficial capacity | strong effect; also recorded: beneficial effect | ca. 2 | 
